In ChEMBL document CHEMBL1811891 (Bioorg Med Chem, 2011):
pIC50: −log10 of the molar value. One block for each compound: values may come before it.

Assays:
[1] = target: C-C chemokine receptor type 5 (Homo sapiens, UniProt P51681); assay: Antagonist activity at human CCR5 expressed in CHO cells assessed as inhibition of MIP-1alpha-induced calcium mobilization; assay type: functional, cell-based
Liver microsomes [2] = assay: Metabolic stability in rat liver microsomes assessed as compound remaining after 15 mins; assay type: ADME, Microsome; details: 0.25 h
Liver microsomes [3] = assay: Metabolic stability in human liver microsomes assessed as compound remaining after 15 mins; assay type: ADME, Microsome; details: 0.25 h
[4] = system: Human immunodeficiency virus 1; assay: microbe, parasite or virus in culture; details: Human immunodeficiency virus 1, Ba-L
Description: Antiviral activity against R5 tropic HIV1 Ba-L infected PBMC assessed as inhibition of viral p24 antigen expression

[5] = Bioavailability in rat at 10 mg/kg, po; assay type: ADME, organism-based; details: in vivo
[6] = AUC in rat at 3 mg/kg, iv; assay type: ADME, organism-based; parameters: dose 3 mg/kg, route intravenous; details: plasma
Rattus norvegicus [7] = assay: Dose normalized Cmax in rat at 10 mg/kg, po; assay type: ADME, organism-based; parameters: dose 10 mg/kg, route oral; details: in vivo
[8] = Aqueous solubility of the compound at pH 6.8; assay type: physicochemical; details: buffer
Rattus norvegicus [9] = assay: Dose normalized AUC in rat at 10 mg/kg, po; assay type: ADME, organism-based; parameters: dose 10 mg/kg, route oral; details: in vivo
[10] = Half life in rat at 3 mg/kg, iv; assay type: ADME, organism-based; parameters: dose 3 mg/kg, route intravenous; details: in vivo
[11] = Half life in rat at 10 mg/kg, po; assay type: ADME, organism-based; parameters: dose 10 mg/kg, route oral; details: in vivo
[12] = Clearance in rat at 3 mg/kg, iv; assay type: ADME, organism-based; parameters: dose 3 mg/kg, route intravenous; details: in vivo
[13] = Volume of distribution at steady state in rat at 3 mg/kg, iv; details: in vivo
[14] = Cmax in rat at 10 mg/kg, po; assay type: ADME, organism-based; parameters: dose 10 mg/kg, route oral; details: in vivo

Chain of C-C chemokine receptor type 5 (P51681 whole entry): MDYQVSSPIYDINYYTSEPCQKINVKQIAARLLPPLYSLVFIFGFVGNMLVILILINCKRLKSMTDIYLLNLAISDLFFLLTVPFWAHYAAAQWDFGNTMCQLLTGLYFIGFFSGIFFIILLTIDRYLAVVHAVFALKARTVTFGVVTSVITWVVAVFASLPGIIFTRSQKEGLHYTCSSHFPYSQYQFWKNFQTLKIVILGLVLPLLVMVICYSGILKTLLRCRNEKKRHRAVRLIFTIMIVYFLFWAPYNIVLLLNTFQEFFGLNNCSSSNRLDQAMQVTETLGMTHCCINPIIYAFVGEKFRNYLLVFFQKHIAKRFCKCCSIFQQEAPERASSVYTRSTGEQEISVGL

Structure (SMILES): CCCCCCN1C(=O)[C@@H]([C@H](O)C2CCCCC2)NC(=O)C12CCN(Cc1ccc(Oc3ccc(C(=O)NC)cc3)cc1)CC2
- pIC50 [1]: 6.96

Structure (SMILES): CCCCN1C(=O)[C@@H]([C@H](O)C2CCCCC2)NC(=O)C12CCN(Cc1ccc(Oc3ccc(OC)cc3)cc1)CC2
- pIC50 [1]: 7.04

Structure (SMILES): CCCCN1C(=O)[C@@H]([C@H](O)C2CCCCC2)NC(=O)C12CCN(Cc1ccc(Oc3ccc(S(N)(=O)=O)cc3)cc1)CC2
- pIC50 [1]: 7.32

Structure (SMILES): CN1C(=O)[C@@H]([C@H](O)C2CCCCC2)NC(=O)C12CCN(Cc1ccc(Oc3ccc(C(=O)O)cc3)cc1)CC2
- pIC50 [1]: 7.30

Structure (SMILES): CCN1C(=O)[C@@H]([C@H](O)C2CCCCC2)NC(=O)C12CCN(Cc1ccc(Oc3ccc(C(=O)NC)cc3)cc1)CC2
- pIC50 [1]: 7.70

Structure (SMILES): CCCCN1C(=O)[C@@H]([C@H](O)C2CCC(O)CC2)NC(=O)C12CCN(Cc1ccc(Oc3ccc(C(=O)O)cc3)cc1)CC2.Cl (stereo partly drawn)
- pIC50 [1]: 6.85
- Stability (Liver microsomes [2]): 100%
- Stability (Liver microsomes [3]): 100%

Structure (SMILES): CCCCCCCN1C(=O)[C@@H]([C@H](O)C2CCCCC2)NC(=O)C12CCN(Cc1ccc(Oc3ccc(C(=O)NC)cc3)cc1)CC2
- pIC50 [1]: 6.72

Structure (SMILES): CCCCN1C(=O)[C@@H]([C@H](O)C2CCCCC2)NC(=O)C12CCN(Cc1ccc(Oc3ccc(C(N)=O)cc3)cc1)CC2.Cl
- pIC50 [1]: 7.41
- Stability (Liver microsomes [2]): 19%
- Stability (Liver microsomes [3]): 1.5%

Structure (SMILES): Cc1c(O)cccc1C(=O)N[C@@H](CSc1ccccc1)[C@H](O)CN1C[C@H]2CCCC[C@H]2C[C@H]1C(=O)NC(C)(C)C
- IC90 [4]: 105 nM

Structure (SMILES): CNC(=O)c1ccc(Oc2ccc(CN3CCC4(CC3)C(=O)N[C@H]([C@H](O)C3CCCCC3)C(=O)N4CCN)cc2)cc1
- pIC50 [1]: 6.12

Structure (SMILES): CCCCN1C(=O)[C@H](CC2CCCCC2)NC(=O)C12CCN(Cc1ccc(Oc3ccc(C(=O)O)cc3)cc1)CC2
- IC90 [4]: 171 nM

Structure (SMILES): CNC(=O)c1ccc(Oc2ccc(CN3CCC4(CC3)C(=O)N[C@H]([C@H](O)C3CCCCC3)C(=O)N4CC(F)(F)F)cc2)cc1
- pIC50 [1]: 7.34

Structure (SMILES): CCCCN1C(=O)C(C(C)C)NC(=O)C12CCN(Cc1ccc(Oc3ccccc3)cc1)CC2.Cl (stereo not drawn)
- bioavailability [5]: 1.3%
- AUC [6]: 372 ng·h/mL
- Cmax/dose (Rattus norvegicus [7]): 33.3 ng/mL
- solubility [8]: 0.2 µg/mL
- AUC/dose (Rattus norvegicus [9]): 96.7 ng·h/mL
- half-life [10]: 13 min
- half-life [11]: 75.7 min

Structure (SMILES): Cc1ccc(-c2ccc3c(c2)C=C(C(=O)Nc2ccc(C[N+](C)(C)C4CCOCC4)cc2)CCC3)cc1
- IC90 [4]: 256 nM

- solubility [8]: 2.7 µg/mL
Structure (SMILES): CCCCN1C(=O)[C@@H]([C@H](O)C(C)C)NC(=O)C12CCN(Cc1ccc(Oc3ccccc3)cc1)CC2.Cl

Structure (SMILES): CCCN1C(=O)[C@@H]([C@H](O)C2CCCCC2)NC(=O)C12CCN(Cc1ccc(Oc3ccc(C(=O)NC)cc3)cc1)CC2.Cl
- pIC50 [1]: 7.55
- bioavailability [5]: 11.2%
- AUC [6]: 1370 ng·h/mL
- Cmax/dose (Rattus norvegicus [7]): 133 ng/mL
- clearance [12]: 35.9 mL/min/kg
- AUC/dose (Rattus norvegicus [9]): 513 ng·h/mL
- half-life [10]: 43.2 min
- half-life [11]: 120 min
- Vd [13]: 1.73 L/kg

- Stability (Liver microsomes [2]): 18%
- Stability (Liver microsomes [3]): 6%
Structure (SMILES): CCCCN1C(=O)[C@@H]([C@H](O)C2CCCCC2)NC(=O)C12CCN(Cc1ccc(Oc3ccccc3)cc1)CC2.Cl

Structure (SMILES): CNC(=O)c1ccc(Oc2ccc(CN3CCC4(CC3)C(=O)N[C@H]([C@H](O)C3CCCCC3)C(=O)N4CCC(C)O)cc2)cc1 (stereo partly drawn)
- pIC50 [1]: 6.74

Structure (SMILES): CCCCN1C(=O)[C@@H]([C@H](O)C(C)C)NC(=O)C12CCN(Cc1ccc(Oc3ccc(C(=O)O)cc3)cc1)CC2.Cl
- pIC50 [1]: 7.32
- bioavailability [5]: 5.9%
- AUC [6]: 2310 ng·h/mL
- Cmax [14]: 137 ng/mL
- clearance [12]: 21.2 mL/min/kg
- Stability (Liver microsomes [2]): 100%
- pIC50 [4]: 7.23
- IC90 [4]: 591 nM
- half-life [10]: 13.2 min
- half-life [11]: 270 min
- Stability (Liver microsomes [3]): 98%
